Reference: patent publication US20240317721A1, “PYRAZOLYL DERIVATIVES AS INHIBITORS OF THE KRAS MUTANT PROTEIN” (NOVARTIS AG, priority 2021, published 2024)

Target: KRasG12C (M1-K169, biotinylated on the N-terminus) (Homo sapiens (Human), UniProt P01116, G12C)
Test: Covalent competition assay: scintillation proximity assay (SPA) quantifying covalent modification of KRASG12C
Assay type: binding
Conditions: competition with radiolabeled covalent probe (Compound B/Compound A), 2 hours incubation, 10 nM KRasG12C
Method in brief: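 Scintillation proximity readout after streptavidin bead capture (30 min) of biotinylated KRasG12C(M1-K169):GDP, 10 nM final, which was covalently labelled over 2 h by 25 nM radio-probe plus 475 nM cold probe unless blocked by compound.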

Row | SMILES | IC50 [nM]
1 | C=CC(=O)N1CC2(CC(n3nc(N4CCN(C5COC5)C[C@]4(C)CC)c(-c4c(Cl)c(C)cc5[nH]ncc45)c3C)C2)C1 (single isomer, unassigned) [Example 133a] | 1600
2 | C=CC(=O)N1CC2(CC(n3nc(N4CCN(C(=O)C(F)F)CC4(C)C)c(-c4c(Cl)c(C)cc5[nH]ncc45)c3C)C2)C1 (single isomer, unassigned) [Example 128a, 1-(6-(4-(5-chloro-6-methyl-1H-indazol-4-yl)-3-(4-(2,2-difluoroacetyl)-2,2-dimethylpiperazin-1-yl)-5-methyl-1H-pyrazol-1-yl)-2-azaspiro[3.3]heptan-2-yl)prop-2-en-1-one] | > 50000
3 | C=CC(=O)N1CC2(CC(n3nc(N4CCC(N(C)C(=O)COC)CC4(C)C)c(-c4c(Cl)c(C)cc5[nH]ncc45)c3C)C2)C1 (single isomer, unassigned) [Example 96b, N-(1-(1-(2-acryloyl-2-azaspiro[3.3]heptan-6-yl)-4-(5-chloro-6-methyl-1H-indazol-4-yl)-5-methyl-1H-pyrazol-3-yl)-2,2-dimethylpiperidin-4-yl)-2-methoxy-N-methylacetamide] | 11
4 | C=CC(=O)N1CC2(CC(n3nc(N4CCC(N5CC6COCC(C5)O6)CC4(C)C)c(-c4c(Cl)c(C)cc5[nH]ncc45)c3C)C2)C1 (single isomer, unassigned) [Example 119b, 1-(6-(3-(4-(3,9-dioxa-7-azabicyclo[3.3.1]nonan-7-yl)-2,2-dimethylpiperidin-1-yl)-4-(5-chloro-6-methyl-1H-indazol-4-yl)-5-methyl-1H-pyrazol-1-yl)-2-azaspiro[3.3]heptan-2-yl)prop-2-en-1-one] | 36
5 | C=CC(=O)N1CC2(CC(n3nc(N4CCN(CCOC)CC45CCC5)c(-c4c(Cl)c(C)cc5[nH]ncc45)c3C)C2)C1 (single isomer, unassigned) [Example 71b, 1-(6-(4-(5-chloro-6-methyl-1H-indazol-4-yl)-3-(8-(2-methoxyethyl)-5,8-diazaspiro[3.5]nonan-5-yl)-5-methyl-1H-pyrazol-1-yl)-2-azaspiro[3.3]heptan-2-yl)prop-2-en-1-one] | 25
6 | C=CC(=O)N1CC2(CC(n3nc(N4CCN(C(C)=O)C[C@@H]4CC)c(-c4c(Cl)c(C)cc5[nH]ncc45)c3C)C2)C1 (single isomer, unassigned) [Example 94b] | 64
7 | C=CC(=O)N1CC2(CC(n3nc(N4CCC(O)CC4(C)C)c(-c4c(Cl)c(C)cc5[nH]ncc45)c3C)C2)C1 (single isomer, unassigned) [Example 29b, 1-(6-(4-(5-chloro-6-methyl-1H-indazol-4-yl)-3-(4-hydroxy-2,2-dimethylpiperidin-1-yl)-5-methyl-1H-pyrazol-1-yl)-2-azaspiro[3.3]heptan-2-yl)prop-2-en-1-one] | 32
8 | C=CC(=O)N1CC2(CC(n3nc(N4CCN(C(C)=O)CC4)c(-c4c(C)c(C)cc5[nH]ncc45)c3C)C2)C1 (single isomer, unassigned) [Example 2a, 1-(6-(3-(4-acetylpiperazin-1-yl)-4-(5,6-dimethyl-1H-indazol-4-yl)-5-methyl-1H-pyrazol-1-yl)-2-azaspiro[3.3]heptan-2-yl)prop-2-en-1-one] | > 50000
9 | C/C=C/C(=O)N1CC2(CC(n3nc(N4CCN(C5COC5)CC45CCC5)c(-c4c(Cl)c(C)cc5[nH]ncc45)c3C)C2)C1 (single isomer, unassigned) [Example 138b, (E)-1-(6-(4-(5-chloro-6-methyl-1H-indazol-4-yl)-5-methyl-3-(8-(oxetan-3-yl)-5,8-diazaspiro[3.5]nonan-5-yl)-1H-pyrazol-1-yl)-2-azaspiro[3.3]heptan-2-yl)but-2-en-1-one] | 2780
10 | C=CC(=O)N1CC2(CC(n3nc(N4CCC(N5C[C@@H]6C[C@H]5CO6)CC4(C)C)c(-c4c(Cl)c(C)cc5[nH]ncc45)c3C)C2)C1 (single isomer, unassigned) [Example 83a] | > 5000
11 | C=CC(=O)N1CC2(CC(n3nc(N4CCN(C5CCOCC5)C[C@@]4(C)C(F)F)c(-c4c(Cl)c(Cl)cc5[nH]ncc45)c3C)C2)C1 (single isomer, unassigned) [Example 106b] | 14
12 | C=CC(=O)N1CC2(CC(n3nc(N4CCN(C(C)=O)C[C@@H]4C(C)C)c(-c4c(Cl)c(C)cc5[nH]ncc45)c3C)C2)C1 (single isomer, unassigned) [Example 95a] | > 5000
13 | C=CC(=O)N1CC2(CC(n3nc(N4CCN(CC(C)(C)O)CC45CCC5)c(-c4c(Cl)c(C)cc5[nH]nc(N)c45)c3C)C2)C1 (single isomer, unassigned) [Example 117a, 1-(6-(4-(3-amino-5-chloro-6-methyl-1H-indazol-4-yl)-3-(8-(2-hydroxy-2-methylpropyl)-5,8-diazaspiro[3.5]nonan-5-yl)-5-methyl-1H-pyrazol-1-yl)-2-azaspiro[3.3]heptan-2-yl)prop-2-en-1-one] | 9
14 | C=CC(=O)N1CC2(CC(n3nc(N4CCN(C5CCOCC5)C[C@]4(C)COC)c(-c4c(Cl)c(C)cc5[nH]nc(N)c45)c3C)C2)C1 (single isomer, unassigned) [Example 90a] | 23
15 | C=CC(=O)N1CC2(CC(n3nc(N4CCC(N(CC)C5COC5)CC4(C)C)c(-c4c(Cl)c(C)cc5[nH]ncc45)c3C)C2)C1 (single isomer, unassigned) [Example 48a, 1-(6-(4-(5-chloro-6-methyl-1H-indazol-4-yl)-3-(4-(ethyl(oxetan-3-yl)amino)-2,2-dimethylpiperidin-1-yl)-5-methyl-1H-pyrazol-1-yl)-2-azaspiro[3.3]heptan-2-yl)prop-2-en-1-one] | 296
16 | C=CC(=O)N1CC2(CC(n3nc(N4CCN(C5COC5)C[C@]4(C)COC)c(-c4c(Cl)c(C)cc5[nH]ncc45)c3C)C2)C1 (single isomer, unassigned) [Example 147b] | 923
17 | C=CC(=O)N1CC2(CC(n3nc(N4CCN(C[C@@H]5COCCO5)C[C@]4(C)COC)c(-c4c(Cl)c(C)cc5[nH]nc(N)c45)c3C)C2)C1 (single isomer, unassigned) [Example 118a] | 15
18 | C=CC(=O)N1CC2(CC(n3nc(N4CCN(C5CCOCC5)CC4(C)C)c(-c4c(Cl)c(Cl)cc5[nH]ncc45)c3C)C2)C1 (single isomer, unassigned) [Example 140b, 1-(6-(4-(5,6-dichloro-1H-indazol-4-yl)-3-(2,2-dimethyl-4-(tetrahydro-2H-pyran-4-yl)piperazin-1-yl)-5-methyl-1H-pyrazol-1-yl)-2-azaspiro[3.3]heptan-2-yl)prop-2-en-1-one] | 18

Results, then the compound that gave them:

Row | IC50 [nM] | SMILES
19 | 8 | C=CC(=O)N1CC2(CC(n3nc(N4CCN(CC(C)(C)O)C[C@]4(C)CC)c(-c4c(Cl)c(C)cc5[nH]ncc45)c3C)C2)C1 (single isomer, unassigned) [Example 161b]
20 | 8 | [2H]C1([2H])OC([2H])([2H])C([2H])([2H])N(C[C@@H]2CCN(c3nn(C4CC5(C4)CN(C(=O)C=C)C5)c(C)c3-c3c(Cl)c(Cl)cc4[nH]ncc34)C(C)(C)C2)C1([2H])[2H] (single isomer, unassigned) [Example 283b]
21 | 6 | C=CC(=O)N1CC2(CC(n3nc(N4CC[C@@H](CN5CCC[C@H]5C(=O)N(C)C)CC4(C)C)c(-c4c(Cl)c(Cl)cc5[nH]ncc45)c3C)C2)C1 (single isomer, unassigned) [Example 313b]
22 | 410 | C=CC(=O)N1CC2(CC(n3nc(N4CC[C@@H](CN5CCC[C@H]5C(=O)N(C)C)CC4(C)C)c(-c4c(Cl)c(Cl)cc5[nH]ncc45)c3C)C2)C1 (single isomer, unassigned) [Example 313a]
23 | 9 | C=CC(=O)N1CC2(CC(n3nc(N4CC[C@@H](CN5CCO[C@@H](CO)C5)CC4(C)C)c(-c4c(Cl)c(Cl)cc5[nH]ncc45)c3C)C2)C1 (single isomer, unassigned) [Example 247b]
24 | 14 | C=CC(=O)N1CC2(CC(n3nc(N4CC[C@@H](CN5CCO[C@@H](C(N)=O)C5)CC4(C)C)c(-c4c(Cl)c(Cl)cc5[nH]ncc45)c3C)C2)C1 (single isomer, unassigned) [Example 271b]
25 | 1000 | C=CC(=O)N1CC2(CC(n3nc(N4CC[C@@H](CN5CC6(CCCO6)C5)CC4(C)C)c(-c4c(Cl)c(Cl)cc5[nH]ncc45)c3C)C2)C1 (single isomer, unassigned) [Example 234a]
26 | 1800 | C=CC(=O)N1CC2(CC(n3nc(N4CC[C@@H](CN5CCN(C6COC6)CC5)CC4(C)C)c(-c4c(Cl)c(F)cc5[nH]ncc45)c3C)C2)C1 (single isomer, unassigned) [Example 245a]
27 | > 5000 | C=CC(=O)N1CC2(CC(n3nc(N4CCN(C(C)(C)C(=O)OC)CC45CCC5)c(-c4c(Cl)c(C)cc5[nH]ncc45)c3C)C2)C1 (single isomer, unassigned) [Example 180a, methyl 2-(5-(1-(2-acryloyl-2-azaspiro[3.3]heptan-6-yl)-4-(5-chloro-6-methyl-1H-indazol-4-yl)-5-methyl-1H-pyrazol-3-yl)-5,8-diazaspiro[3.5]nonan-8-yl)-2-methylpropanoate]
28 | 7 | C=CC(=O)N1CC2(CC(n3nc(N4CC[C@@H](CN5CC6(CCCN6C(C)=O)C5)CC4(C)C)c(-c4c(Cl)c(Cl)cc5[nH]ncc45)c3C)C2)C1 (single isomer, unassigned) [Example 285b]
29 | 7 | C=CC(=O)N1CC2(CC(n3nc(N4CC[C@@H](CN5CCOC6CS(=O)(=O)CC65)CC4(C)C)c(-c4c(Cl)c(Cl)cc5[nH]ncc45)c3C)C2)C1 (single isomer, unassigned) [Example 266b, 1-(6-(4-(5,6-dichloro-1H-indazol-4-yl)-3-((R)-4-(((4aR*,7aS*)-6,6-dioxidohexahydro-4H-thieno[3,4-b][1,4]oxazin-4-yl)methyl)-2,2-dimethylpiperidin-1-yl)-5-methyl-1H-pyrazol-1-yl)-2-azaspiro[3.3]heptan-2-yl)prop-2-en-1-one]
30 | 7 | C=CC(=O)N1CC2(CC(n3nc(N4CC[C@@H](CN5CC6(CCN(C(C)=O)C6)C5)CC4(C)C)c(-c4c(Cl)c(Cl)cc5[nH]ncc45)c3C)C2)C1 (single isomer, unassigned) [Example 268b]
